In ChEMBL document CHEMBL1201862, “PubChem BioAssay data set” (2004):
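Interpolation was linear, between the two tested concentrations surrounding the appropriate level; five concentrations were tested over 48 hours in 96-well plates. Abbreviation: GI50, concentration required for 50% inhibition of growth.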 The source made the active and inactive calls. Cut-off read from the data, not from the text of the source: active = GI50 up to about 1.1 µM and inactive = higher.

What was measured:
Test in all cases: NCI-60 cell line screen, 48 h
[1] = tested on: SNB-19
[2] = tested on: DLD-1
[3] = tested on: XF498
[4] = tested on: NCI-H460
[5] = tested on: SF-268
[6] = tested on: SN12C
[7] = tested on: 786-0
[8] = tested on: SF-539
[9] = tested on: DMS-273
[10] = tested on: NCI-H522
[11] = tested on: IGROV-1
[12] = tested on: CAKI-1
[13] = tested on: K562
[14] = tested on: SK-OV-3
[15] = tested on: OVCAR-4
[16] = tested on: HOP-62
[17] = tested on: TK-10
[18] = tested on: HCT-15
[19] = tested on: LOX IMVI
[20] = tested on: HT-29
[21] = tested on: SK-MEL-5
[22] = tested on: SK-MEL-2
[23] = tested on: U-251
[24] = tested on: DMS-114
[25] = tested on: NCI-H23
[26] = tested on: HOP-92
[27] = tested on: EKVX
[28] = tested on: HCC 2998
[29] = tested on: HOP-18
[30] = tested on: HL-60
[31] = tested on: ACHN
[32] = tested on: KM12
[33] = tested on: SR
[34] = tested on: MOLT-4
[35] = tested on: OVCAR-3
[36] = tested on: UACC-62
[37] = tested on: A549
[38] = tested on: M14
[39] = tested on: RXF 393
[40] = tested on: CCRF-CEM
[41] = tested on: NCI-H226
[42] = tested on: UO-31
[43] = tested on: LXFL 529
[44] = tested on: OVCAR-8
[45] = tested on: SW-620
[46] = tested on: COLO 205
[47] = tested on: HCT-116
[48] = tested on: SNB-75
[49] = tested on: A498
[50] = tested on: SNB-78
[51] = tested on: KM-20L2
[52] = tested on: Malme-3M
[53] = tested on: OVCAR-5
[54] = tested on: M19-MEL
[55] = tested on: RPMI-8226
[56] = tested on: UACC-257
[57] = tested on: SF-295
[58] = tested on: SK-MEL-28
[59] = tested on: RXF 631

Question: How did the GI50 [1] turn out when `Cc1ccc(NC(=O)CCC(=O)C2Cc3ccccc3C2=O)cc1C` (stereo unspecified) was run?
Answer: > 100 µM (inactive)

Question: What about the GI50 [2] of the same compound?
Answer: > 100 µM (inactive)

Question: What about the GI50 [3] of the same compound?
Answer: > 100 µM (inactive)

Question: And the GI50 [4]?
Answer: > 100 µM (inactive)

Question: And the GI50 [5]?
Answer: > 100 µM (inactive)

Question: What about the GI50 [6] of the same compound?
Answer: > 100 µM (inactive)

Question: What about the GI50 [7] of the same compound?
Answer: > 100 µM (inactive)

Question: And the GI50 [8]?
Answer: > 100 µM (inactive)

Question: What about the GI50 [9] of the same compound?
Answer: > 100 µM (inactive)

Question: And the GI50 [10]?
Answer: > 100 µM (inactive)

Question: What about the GI50 [11] of the same compound?
Answer: > 100 µM (inactive)

Question: What about the GI50 [12] of the same compound?
Answer: > 100 µM (inactive)

Question: What about the GI50 [13] of the same compound?
Answer: > 100 µM (inactive)

Question: And the GI50 [14]?
Answer: > 100 µM (inactive)

Question: And the GI50 [15]?
Answer: > 100 µM (inactive)

Question: What about the GI50 [16] of the same compound?
Answer: > 100 µM (inactive)

Question: And the GI50 [17]?
Answer: > 100 µM (inactive)

Question: And the GI50 [18]?
Answer: > 100 µM

Question: What about the GI50 [19] of the same compound?
Answer: > 100 µM (inactive)

Question: What about the GI50 [20] of the same compound?
Answer: > 100 µM (inactive)

Question: What about the GI50 [21] of the same compound?
Answer: > 100 µM (inactive)

Question: What about the GI50 [22] of the same compound?
Answer: > 100 µM (inactive)

Question: What about the GI50 [23] of the same compound?
Answer: > 100 µM (inactive)

Question: And the GI50 [24]?
Answer: > 100 µM (inactive)

Question: And the GI50 [25]?
Answer: > 100 µM (inactive)

Question: What about the GI50 [26] of the same compound?
Answer: > 100 µM (inactive)

Question: And the GI50 [27]?
Answer: > 100 µM (inactive)

Question: What about the GI50 [28] of the same compound?
Answer: > 100 µM (inactive)

Question: What about the GI50 [29] of the same compound?
Answer: > 100 µM (inactive)

Question: And the GI50 [30]?
Answer: > 100 µM (inactive)

Question: And the GI50 [31]?
Answer: > 100 µM (inactive)

Question: What about the GI50 [32] of the same compound?
Answer: > 100 µM (inactive)

Question: What about the GI50 [33] of the same compound?
Answer: > 100 µM (inactive)

Question: What about the GI50 [34] of the same compound?
Answer: > 100 µM (inactive)

Question: And the GI50 [35]?
Answer: > 100 µM (inactive)

Question: What about the GI50 [36] of the same compound?
Answer: > 100 µM (inactive)

Question: What about the GI50 [37] of the same compound?
Answer: > 100 µM (inactive)

Question: And the GI50 [38]?
Answer: > 100 µM (inactive)

Question: What about the GI50 [39] of the same compound?
Answer: > 100 µM (inactive)

Question: And the GI50 [40]?
Answer: > 100 µM (inactive)

Question: And the GI50 [41]?
Answer: > 100 µM (inactive)

Question: What about the GI50 [42] of the same compound?
Answer: > 100 µM (inactive)

Question: And the GI50 [43]?
Answer: > 100 µM (inactive)

Question: What about the GI50 [44] of the same compound?
Answer: > 100 µM (inactive)

Question: What about the GI50 [45] of the same compound?
Answer: > 100 µM (inactive)

Question: And the GI50 [46]?
Answer: > 100 µM (inactive)

Question: What about the GI50 [47] of the same compound?
Answer: > 100 µM (inactive)

Question: What about the GI50 [48] of the same compound?
Answer: > 100 µM (inactive)

Question: What about the GI50 [49] of the same compound?
Answer: > 100 µM (inactive)

Question: And the GI50 [50]?
Answer: > 100 µM (inactive)

Question: What about the GI50 [51] of the same compound?
Answer: > 100 µM (inactive)

Question: And the GI50 [52]?
Answer: > 100 µM (inactive)

Question: And the GI50 [53]?
Answer: > 100 µM (inactive)

Question: What about the GI50 [54] of the same compound?
Answer: > 100 µM (inactive)

Question: What about the GI50 [55] of the same compound?
Answer: > 100 µM (inactive)

Question: What about the GI50 [56] of the same compound?
Answer: > 100 µM (inactive)

Question: And the GI50 [57]?
Answer: > 100 µM (inactive)

Question: What about the GI50 [58] of the same compound?
Answer: > 100 µM (inactive)

Question: Which results are given for `CCOP(=O)(OCC)C1=NC=CC=CC1n1c(-c2ccccc2)nn(CC)c1=O` (stereo unspecified)?
Answer: GI50 [1]: > 100 µM (inactive); GI50 [2]: > 100 µM (inactive); GI50 [4]: > 100 µM (inactive); GI50 [5]: > 100 µM (inactive); GI50 [6]: > 100 µM (inactive); GI50 [7]: > 100 µM (inactive); GI50 [8]: > 100 µM (inactive); GI50 [9]: > 100 µM (inactive); GI50 [10]: > 100 µM (inactive); GI50 [11]: > 100 µM (inactive); GI50 [12]: > 100 µM (inactive); GI50 [14]: > 100 µM (inactive); GI50 [16]: > 100 µM (inactive); GI50 [17]: > 100 µM (inactive); GI50 [18]: > 100 µM; GI50 [19]: > 100 µM (inactive); GI50 [20]: > 100 µM (inactive); GI50 [21]: > 100 µM (inactive); GI50 [22]: > 100 µM (inactive); GI50 [23]: > 100 µM (inactive); GI50 [24]: > 100 µM (inactive); GI50 [25]: > 100 µM (inactive); GI50 [26]: 7.06 µM (inactive); GI50 [27]: > 100 µM (inactive); GI50 [28]: > 100 µM (inactive); GI50 [29]: > 100 µM (inactive); GI50 [30]: > 100 µM (inactive); GI50 [31]: > 100 µM (inactive); GI50 [32]: > 100 µM (inactive); GI50 [33]: > 100 µM (inactive); GI50 [59]: > 100 µM (inactive); GI50 [34]: > 100 µM (inactive); GI50 [35]: > 100 µM (inactive); GI50 [36]: > 100 µM (inactive); GI50 [37]: > 100 µM (inactive); GI50 [39]: > 100 µM (inactive); GI50 [40]: > 100 µM (inactive); GI50 [41]: > 100 µM (inactive); GI50 [43]: > 100 µM (inactive); GI50 [44]: > 100 µM (inactive); GI50 [45]: > 100 µM (inactive); GI50 [46]: > 100 µM (inactive); GI50 [47]: > 100 µM (inactive); GI50 [51]: > 100 µM (inactive); GI50 [52]: > 100 µM (inactive); GI50 [54]: > 100 µM (inactive); GI50 [55]: > 100 µM (inactive); GI50 [56]: > 100 µM (inactive); GI50 [57]: > 100 µM (inactive); GI50 [58]: > 100 µM (inactive)

Question: What does the source list for `O=C(O)CCCCCO`?
Answer: GI50 [1]: > 100 µM (inactive); GI50 [2]: > 100 µM (inactive); GI50 [3]: > 100 µM (inactive); GI50 [4]: > 100 µM (inactive); GI50 [5]: > 100 µM (inactive); GI50 [6]: > 100 µM (inactive); GI50 [7]: > 100 µM (inactive); GI50 [8]: > 100 µM (inactive); GI50 [9]: > 100 µM (inactive); GI50 [10]: > 100 µM (inactive); GI50 [11]: > 100 µM (inactive); GI50 [12]: > 100 µM (inactive); GI50 [13]: > 100 µM (inactive); GI50 [14]: > 100 µM (inactive); GI50 [15]: > 100 µM (inactive); GI50 [16]: > 100 µM (inactive); GI50 [17]: > 100 µM (inactive); GI50 [18]: > 100 µM; GI50 [19]: > 100 µM (inactive); GI50 [20]: > 100 µM (inactive); GI50 [21]: > 100 µM (inactive); GI50 [22]: > 100 µM (inactive); GI50 [23]: > 100 µM (inactive); GI50 [24]: > 100 µM (inactive); GI50 [25]: > 100 µM (inactive); GI50 [26]: > 100 µM (inactive); GI50 [27]: > 100 µM (inactive); GI50 [28]: > 100 µM (inactive); GI50 [29]: > 100 µM (inactive); GI50 [30]: > 100 µM (inactive); GI50 [31]: > 100 µM (inactive); GI50 [32]: > 100 µM (inactive); GI50 [33]: > 100 µM (inactive); GI50 [34]: > 100 µM (inactive); GI50 [35]: > 100 µM (inactive); GI50 [36]: > 100 µM (inactive); GI50 [37]: > 100 µM (inactive); GI50 [38]: > 100 µM (inactive); GI50 [39]: > 100 µM (inactive); GI50 [40]: > 100 µM (inactive); GI50 [41]: > 100 µM (inactive); GI50 [42]: > 100 µM (inactive); GI50 [43]: > 100 µM (inactive); GI50 [44]: > 100 µM (inactive); GI50 [45]: > 100 µM (inactive); GI50 [46]: > 100 µM (inactive); GI50 [47]: > 100 µM (inactive); GI50 [48]: > 100 µM (inactive); GI50 [49]: > 100 µM (inactive); GI50 [50]: > 100 µM (inactive); GI50 [51]: > 100 µM (inactive); GI50 [52]: > 100 µM (inactive); GI50 [53]: > 100 µM (inactive); GI50 [54]: > 100 µM (inactive); GI50 [55]: > 100 µM (inactive); GI50 [56]: > 100 µM (inactive); GI50 [57]: > 100 µM (inactive); GI50 [58]: > 100 µM (inactive)
